From patent US6410792B1, “Amide derivatives and methods for using the same as selective neuropeptide Y receptor antagonists” (Bayer Corporation, priority 1997, dated 2002)
Where two headings read alike, the source gives them in different places.

Legend:
Human NPY1 receptor = target: T1, Human NPY1 receptor (Homo sapiens, UniProt P25929); experiment: Human NPY1 receptor binding assay ([125I]PYY, SK-N-MC cells)
T1 construct: host or cells: SK-N-MC cells
T1 sequence (P25929 1-384): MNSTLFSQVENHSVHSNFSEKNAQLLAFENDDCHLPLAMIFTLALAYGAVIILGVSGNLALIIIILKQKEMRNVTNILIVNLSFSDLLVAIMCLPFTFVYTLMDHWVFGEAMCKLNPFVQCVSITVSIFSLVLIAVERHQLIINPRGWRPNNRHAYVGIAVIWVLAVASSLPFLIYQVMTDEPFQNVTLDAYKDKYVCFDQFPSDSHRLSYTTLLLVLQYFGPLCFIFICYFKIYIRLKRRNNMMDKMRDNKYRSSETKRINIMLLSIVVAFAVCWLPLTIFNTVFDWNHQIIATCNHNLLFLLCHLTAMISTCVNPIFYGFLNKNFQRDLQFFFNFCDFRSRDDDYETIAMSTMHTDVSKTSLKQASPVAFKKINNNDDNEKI
How it was run: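 Confluent SK-N-MC cells preincubated 30 min at room temperature in serum-free DMEM/25 mM HEPES pH 7.3 with BSA, bacitracin and PMSF, then incubated 3 h at room temperature with compound and ~50 pM [125I]PYY. Nonspecific binding defined with 1 μM NPY; bound radioactivity counted after Triton X-100 lysis.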

Human NPY5 receptor = target: T2, Human NPY5 receptor (Homo sapiens, UniProt Q15761); experiment: Human NPY5 receptor binding assay ([125I]PYY, membrane protein)
T2 sequence (Q15761 1-445): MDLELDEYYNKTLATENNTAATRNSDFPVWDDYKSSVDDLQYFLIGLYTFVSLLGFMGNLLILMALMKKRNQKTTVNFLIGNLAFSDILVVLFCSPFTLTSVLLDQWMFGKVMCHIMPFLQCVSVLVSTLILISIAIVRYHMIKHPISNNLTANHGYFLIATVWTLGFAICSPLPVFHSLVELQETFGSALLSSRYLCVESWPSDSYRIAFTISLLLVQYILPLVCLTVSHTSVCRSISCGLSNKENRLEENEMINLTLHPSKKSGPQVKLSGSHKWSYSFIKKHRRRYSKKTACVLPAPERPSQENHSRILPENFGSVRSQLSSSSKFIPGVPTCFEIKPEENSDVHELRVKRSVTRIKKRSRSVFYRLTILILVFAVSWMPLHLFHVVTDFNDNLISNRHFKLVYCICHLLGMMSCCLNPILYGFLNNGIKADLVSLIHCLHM
How it was run: (§1)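 Membrane protein was incubated with 75-100 pM porcine [125I]PYY and test compound for 2 hours at room temperature with constant mixing in pH 7.4 Tris buffer containing NaCl, KCl, CaCl2, MgSO4, 0.1% BSA and bacitracin. Nonspecific binding was defined with 1 μM PYY. Bound radioactivity was counted after filtration.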

Y2 receptor = target: T3, Y2 receptor (Homo sapiens, UniProt P49146); experiment: Y2 receptor binding assay ([125I]PYY, membrane protein); conditions: [125I]PYY, membrane protein; read-out: hNPY2 IC50
T3 sequence (P49146 1-381): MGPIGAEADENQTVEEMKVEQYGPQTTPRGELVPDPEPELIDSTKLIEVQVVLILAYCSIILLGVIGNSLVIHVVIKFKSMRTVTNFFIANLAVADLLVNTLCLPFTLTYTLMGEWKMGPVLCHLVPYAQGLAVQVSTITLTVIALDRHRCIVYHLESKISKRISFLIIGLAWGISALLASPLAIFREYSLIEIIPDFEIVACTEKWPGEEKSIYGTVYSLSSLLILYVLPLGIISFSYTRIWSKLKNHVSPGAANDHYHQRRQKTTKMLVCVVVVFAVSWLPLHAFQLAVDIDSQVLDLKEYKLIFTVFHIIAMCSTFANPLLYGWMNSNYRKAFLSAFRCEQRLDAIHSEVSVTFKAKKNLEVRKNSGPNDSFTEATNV
How it was run: (§2)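 Filtration binding with membrane protein and drug dilution, 2 h at room temperature with mixing, radioactivity counted by gamma or scintillation. Y2: 25 pM [125I]PYY in Krebs-Ringer bicarbonate pH 7.4 with 0.01% BSA, nonspecific by 1 μM NPY. Y4/PP1: 50 pM [125I]hPP in HEPES-buffered saline pH 7.4 with protease inhibitors and 0.3% BSA, nonspecific by 1 μM hPP.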

Rat NPY5 receptor [1] = target: T4, Rat NPY5 receptor (Rattus norvegicus, UniProt Q63634); experiment: Rat NPY5 cyclase assay (in vitro functional assay, forskolin-stimulated adenylate cyclase, cAMP); type: cell-based; conditions: 20 min; 10 μM; percentage of forskolin-stimulated adenylate cyclase; read-out: rNPY5 % FSAC (10 μM)
T4 sequence (Q63634 1-445): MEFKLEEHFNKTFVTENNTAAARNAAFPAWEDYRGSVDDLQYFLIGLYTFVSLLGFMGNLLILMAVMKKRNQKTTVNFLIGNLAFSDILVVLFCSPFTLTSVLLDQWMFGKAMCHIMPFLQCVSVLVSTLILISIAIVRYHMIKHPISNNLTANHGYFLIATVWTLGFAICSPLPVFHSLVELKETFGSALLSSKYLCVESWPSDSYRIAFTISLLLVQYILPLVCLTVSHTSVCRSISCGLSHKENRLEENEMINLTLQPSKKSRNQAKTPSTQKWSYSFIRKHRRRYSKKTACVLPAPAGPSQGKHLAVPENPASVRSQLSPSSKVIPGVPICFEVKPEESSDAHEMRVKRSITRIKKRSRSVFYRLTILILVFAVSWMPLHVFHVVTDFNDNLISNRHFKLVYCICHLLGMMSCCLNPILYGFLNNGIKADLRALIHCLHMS
How it was run: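 Cells stably expressing rat NPY5 receptor, in serum-free DMEM with 10 mM HEPES pH 7.4 and 1 mM IBMX, received […] plus compound for 20 min at 37 °C. Reactions were stopped by boiling. cAMP was quantified by radioimmunoassay and expressed as % of forskolin-stimulated adenylate cyclase.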

Rat NPY5 receptor [2] = target: T4, Rat NPY5 receptor; experiment: Rat NPY5 receptor binding assay ([125I]PYY, membrane protein)
How it was run: as §1

human Y4/PP1 receptor = human Y4/PP1 receptor (Homo sapiens, UniProt P50391); experiment: Human Y4/PP1 receptor binding assay ([125I]human PP, membrane protein)
Sequence of human Y4/PP1 receptor (P50391 whole entry): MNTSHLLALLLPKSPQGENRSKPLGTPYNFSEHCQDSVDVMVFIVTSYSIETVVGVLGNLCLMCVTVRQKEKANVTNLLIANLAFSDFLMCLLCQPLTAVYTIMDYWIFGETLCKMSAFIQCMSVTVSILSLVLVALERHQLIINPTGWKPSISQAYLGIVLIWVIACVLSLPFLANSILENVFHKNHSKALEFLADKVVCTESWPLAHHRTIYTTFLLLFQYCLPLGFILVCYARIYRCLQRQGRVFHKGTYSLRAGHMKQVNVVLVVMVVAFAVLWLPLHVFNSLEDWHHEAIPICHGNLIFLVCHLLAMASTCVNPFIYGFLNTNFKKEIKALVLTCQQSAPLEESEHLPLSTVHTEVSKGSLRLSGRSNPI
How it was run: as §2

[3] = [125I]PYY, SK-N-MC cells, read-out: hNPYI IC50
[4] = [125I]PYY, read-out: hNPY5 IC50
[5] = [125I]PYY, read-out: rNPY5 IC50
[6] = [125I]human PP, membrane protein, read-out: hNPY4 IC50

| Structure (SMILES) | melting point [°C] | IC50 (Human NPY1 receptor; [3]) [µM] | IC50 (Human NPY5 receptor; [4]) [nM] | IC50 (Y2 receptor) [µM] | activity at 10 µM (Rat NPY5 receptor [1]) [%] | IC50 (Rat NPY5 receptor [2]; [5]) [nM] | IC50 (human Y4/PP1 receptor; [6]) [µM] | IC50 (Human NPY1 receptor) [µM] | IC50 (Rat NPY5 receptor [2]; rNPY5 IC50, [125I]PYY) [nM] | IC50 (human Y4/PP1 receptor) [µM] | IC50 (Human NPY5 receptor; hNPY5 IC50, [125I]PYY) [nM] |
| --- | --- | --- | --- | --- | --- | --- | --- | --- | --- | --- | --- |
| Cl.N#CC(c1ccccc1)C1CCN(CC(=O)Nc2ccc(C3CCCCC3)cc2)CC1 (stereo not shown) [Compound 300, 2-[4-(Cyano-phenyl-methyl)-piperidin-1-yl]-N-(4-cyclohexyl-phenyl)-acetamide; hydrochloride] | 150 | > 5 | 13 | > 5 | 90 | 13 | > 5 | – | – | – | – |
| CCC(=O)C1(c2ccccc2)CCN(CC(=O)Nc2ccc(C3CCCCC3)cc2)CC1.Cl [Compound 303, N-(4-Cyclohexyl-phenyl)-2-(4-phenyl-4-propionyl-piperidin-1-yl)-acetamide; hydrochloride] | 252 | – | 4 | > 5 | 93 | – | – | > 5 | 6 | > 5 | – |
| O=C(CN1CCC(n2c(=O)[nH]c3ccccc32)CC1)Nc1ccc(-c2ccc(F)cc2)cc1 [Compound 259, N-(4′-Fluoro-biphenyl-4-yl)-2-[4-(2-oxo-2,3-dihydro-benzoimidazol-1-yl)-piperidin-1-yl]-acetamide] | 228 to 229 | > 5 | 150 | > 5 | 101 | 87 | > 5 | – | – | – | – |
| CC(=O)NCC1(c2ccccc2)CCN(CC(=O)Nc2ccc(C3CCCCC3)cc2)CC1.O=C(O)C(=O)O [Compound 301, 2-[4-(Acetylamino-methyl)-4-phenyl-piperidin-1-yl]-N-(4-cyclohexyl-phenyl)-acetamide; compound with oxalic acid] | 146 | > 5 | – | > 5 | 101 | – | > 5 | – | 32 | – | 32 |
| Cl.O=C(CN1CCC(n2c(=O)[nH]c3ccccc32)CC1)NCCc1ccccc1 [Compound 280, 2-[4-(2-Oxo-2,3-dihydro-benzoimidazol-1-yl)-piperidin-1-yl]-N-phenethyl-acetamide; hydrochloride] | 181 to 182 | > 5 | – | > 5 | 90 | – | > 5 | – | – | – | – |
| CCCCCc1ccc(NC(=O)CN2CCC(n3c(=O)[nH]c4ccccc43)CC2)cc1 [Compound 255, 2-[4-(2-Oxo-2,3-dihydro-benzoimidazol-1-yl)-piperidin-1-yl]-N-(4-pentyl-phenyl)-acetamide] | 127 to 128 | > 5 | 74 | > 5 | 95 | – | > 5 | – | – | – | – |
| CCCCCCc1ccc(NC(=O)CN2CCC(n3c(=O)[nH]c4ccccc43)CC2)cc1 [Compound 256, N-(4-Hexyl-phenyl)-2-[4-(2-oxo-2,3-dihydro-benzoimidazol-1-yl)-piperidin-1-yl]-acetamide] | 128 to 129 | > 5 | 120 | > 5 | 92 | – | > 5 | – | – | – | – |
| O=C(CN1CCC(n2c(=O)[nH]c3ccccc32)CC1)Nc1ccc(C2CCCCC2)cc1 [Compound 251, N-(4-Cyclohexyl-phenyl)-2-[4-(2-oxo-2,3-dihydrobenzoimidazol-1-yl)-piperidin-1-yl]-acetamide] | 130 to 132 | > 5 | 4 | > 5 | 92 | – | > 5 | – | – | – | – |
| CCCCc1ccc(NC(=O)CN2CCC(n3c(=O)[nH]c4ccccc43)CC2)cc1 [Compound 254, N-(4-Butyl-phenyl)-2-[4-(2-oxo-2,3-dihydro-benzoimidazol-1-yl)-piperidin-1-yl]-acetamide] | 130 to 131 | > 5 | 43 | > 5 | 103 | – | > 5 | – | – | – | – |
| CCNC1(C(N)=O)CCN(CC(=O)Nc2ccc(C3CCCCC3)cc2)CC1.O=C(O)C(=O)O [Compound 302, 1-[(4-Cyclohexyl-phenylcarbamoyl)-methyl]-4-ethylamino-piperidine-4-carboxylic acid amide; compound with oxalic acid] | 184 | > 5 | 6 | > 5 | 107 | 6 | > 5 | – | – | – | – |
| CC(C)c1ccc(NC(=O)CN2CCC(n3c(=O)[nH]c4ccccc43)CC2)cc1 [Compound 257, N-(4-Isopropyl-phenyl)-2-[4-(2-oxo-2,3-dihydro-benzoimidazol-1-yl)-piperidin-1-yl]-acetamide] | 133 to 134 | > 5 | 110 | > 5 | 88 | – | > 5 | – | – | – | – |
